Among the data in ChEMBL document CHEMBL4024747, “Design, Synthesis, and Biological Activities of Vibsanin B Derivatives: A New Class of HSP90 C-Terminal Inhibitors” (J Med Chem, 2017) are IC50 values, retold here.

Format in all cases: functional, cell-based
One assay relates to SW480. In words: Antiproliferative activity against human SW480 cells assessed as reduction in cell viability after 48 hrs by MTT assay. The conditions noted are these: SW480, 48 h. On the technique in general: Formazan colour is commonly taken as a measure of viable cells.
A further assay concerns SMMC-7721. In words: Antiproliferative activity against human SMMC7721 cells assessed as reduction in cell viability after 48 hrs by MTT assay. The conditions noted are these: SMMC-7721, 48 h.
The test system of the next assay is MCF7. In words: Antiproliferative activity against human MCF7 cells assessed as reduction in cell viability after 48 hrs by MTT assay. The conditions noted are these: MCF7, 48 h.
In the next assay the test system is HL-60. In words: Antiproliferative activity against human HL60 cells assessed as reduction in cell viability after 48 hrs by MTT assay. The conditions noted are these: HL-60, 48 h.
A further assay relates to A549. In words: Antiproliferative activity against human A549 cells assessed as reduction in cell viability after 48 hrs by MTT assay. The note with it: A549, 48 h.

Each structure is given as a SMILES string. pIC50: −log10 of the molar value. Some results are limits rather than exact numbers.

As to `CC(C)=CCC[C@]1(C)/C=C/[C@@H](OC(=O)C=C(C)C)[C@](C)(O)/C=C/C(=O)/C(C(=O)N2CCN(C)CC2)=C\C1`, the pIC50 in the assay on SW480 was 5.34; with SMMC-7721, 4.93; in the assay on MCF7 it was 5.20; with HL-60 it was 5.26; with A549 it was 5.07.
Take `COC/C1=C/C[C@](C)(CCC=C(C)C)/C=C/[C@@H](OC(=O)C=C(C)C)[C@](C)(OC)/C=C/C1=O`: the pIC50 was 4.84 in the assay on SW480; 5.03 with SMMC-7721; 4.78 in the assay on MCF7; 5.39 in the assay on HL-60; 5.38 in the assay on A549.
Regarding `CC(C)=CCC[C@]1(C)/C=C/[C@@H](OC(=O)C=C(C)C)[C@](C)(O)/C=C/C(=O)/C(CN(C(C)C)C(C)C)=C\C1`, the pIC50 in the assay on SW480 was 6.12; in the assay with SMMC-7721 it was 6.47; in the assay with MCF7, 6.11; with HL-60, 6.13; in the assay on A549 it was 6.19.
Consider `CCN(CC)C(=O)/C1=C/C[C@](C)(CCC=C(C)C)/C=C/[C@@H](OC(=O)C=C(C)C)[C@](C)(O)/C=C/C1=O`, for which the pIC50 is 4.93 in the assay with SW480; 4.86 with SMMC-7721; 4.92 in the assay with MCF7; 5.04 with HL-60; 4.95 in the assay on A549.
`CC(=O)OC/C1=C/C[C@](C)(CCC=C(C)C)/C=C/[C@@H](OC(=O)C=C(C)C)[C@](C)(O)/C=C/C1=O`: the negative logarithm of the IC50 (pIC50) in the assay on SW480 is 5.33 to 5.53; in the assay on SMMC-7721 it was 5.33 to 5.53; in the assay on MCF7, 5.35; with HL-60 it was 5.33 to 5.53; in the assay on A549 it was 5.33 to 5.53.
Regarding `CO[C@]1(C)/C=C/C(=O)/C(CO)=C\C[C@](C)(CCC=C(C)C)/C=C/[C@H]1OC(=O)C=C(C)C`, the pIC50 was 4.82 in the assay with SW480; 4.80 in the assay on SMMC-7721; 4.85 in the assay with MCF7; 4.84 in the assay with HL-60; 4.84 with A549.
`CC(C)=CCC[C@]1(C)/C=C/[C@@H](OC(=O)C=C(C)C)[C@](C)(O)CCC(=O)/C(CO)=C\C1`: the pIC50 with SW480, with SMMC-7721, in the assay on MCF7, with HL-60 and in the assay on A549 was < 4.40 in each case.
As to `CC(=O)O[C@@H]1/C=C/[C@@](C)(CCC=C(C)C)C/C=C(/CO)C(=O)/C=C/[C@@]1(C)O`, the pIC50 was 5.31 with SW480; 5.01 with SMMC-7721; 5.10 with MCF7; 5.30 with HL-60; 5.06 with A549.
For the molecule `CCCC(=O)O[C@@H]1/C=C/[C@@](C)(CCC=C(C)C)C/C=C(/CO)C(=O)/C=C/[C@@]1(C)O`, the negative-log IC50 (pIC50) is 5.60 in the assay on SW480; 5.11 in the assay on SMMC-7721; 5.22 with MCF7; 5.38 in the assay on HL-60; 5.39 with A549.
As for `CC(C)=CCC[C@]1(C)/C=C/[C@@H](OC(=O)C=C(C)C)[C@](C)(O)/C=C/C(=O)/C(C(=O)N2CCOCC2)=C\C1`, the pIC50 was 5.55 in the assay with SW480; 5.43 in the assay with SMMC-7721; 5.47 with MCF7; 5.49 in the assay on HL-60; 5.78 in the assay with A549.
For `CC(C)=CCC[C@]1(C)/C=C/[C@@H](OC(=O)C=C(C)C)[C@](C)(O)/C=C/C(=O)/C(Cn2cc(CO)nn2)=C\C1`, the pIC50 in the assay on SW480 is 5.54; in the assay with SMMC-7721, 5.45; in the assay with MCF7, 5.53; with HL-60, 5.49; in the assay with A549, 5.46.
The corresponding values for `COCO[C@@H]1/C=C/[C@@](C)(CCC=C(C)C)C/C=C(/CO)C(=O)/C=C/[C@@]1(C)O` are < 4.40, < 4.40, < 4.40, < 4.40 and < 4.40.
Turning to `COCOC/C1=C/C[C@](C)(CCC=C(C)C)/C=C/[C@@H](OC(=O)C=C(C)C)[C@](C)(O)/C=C/C1=O`, the pIC50 was 5.43 with SW480; 5.49 with SMMC-7721; 5.51 with MCF7; 5.55 in the assay on HL-60; 5.53 in the assay with A549.
Taken in the same sequence, the figures for `CC(C)=CCC[C@]1(C)/C=C/[C@@H](OC(=O)C=C(C)C)[C@](C)(O)/C=C/[C@H](O)/C(CO)=C\C1` were < 4.40, < 4.40, 4.48, < 4.40 and < 4.40.
For `CC(C)=CCC[C@]1(C)/C=C/[C@@H](OC(=O)C=C(C)C)[C@](C)(O)/C=C/C(=O)/C(CO[Si](c2ccccc2)(c2ccccc2)C(C)(C)C)=C\C1`, the pIC50 is 4.68 with SW480; 4.42 in the assay with SMMC-7721; 4.80 in the assay with MCF7; 4.84 in the assay with HL-60; 4.89 in the assay on A549.
Take `CC(C)=CCC[C@]1(C)/C=C/[C@@H](OC(=O)C=C(C)C)[C@](C)(O)/C=C/C(=O)/C(COC(=O)c2ccc([N+](=O)[O-])cc2)=C\C1`: the pIC50 is 6.24 in the assay on SW480; 5.59 with SMMC-7721; 6.17 in the assay with MCF7; 6.08 in the assay on HL-60; 5.88 with A549.
The corresponding values for `CCN(CC)C/C1=C/C[C@](C)(CCC=C(C)C)/C=C/[C@@H](OC(=O)C=C(C)C)[C@](C)(O)/C=C/C1=O` are 6.57, 6.24, 6.89, 6.85 and 6.89.
On to `CC[Si](CC)(CC)OC/C1=C/C[C@](C)(CCC=C(C)C)/C=C/[C@@H](OC(=O)C=C(C)C)[C@](C)(O)/C=C/C1=O`, for which the pIC50 in the assay with SW480 is 5.57; with SMMC-7721, 5.46; in the assay on MCF7 it was 5.50; in the assay on HL-60, 5.55; with A549, 5.51.
As to `CC(=O)OC/C1=C/C[C@](C)(CCC=C(C)C)/C=C/[C@@H](OC(=O)C=C(C)C)[C@](C)(OC(C)=O)/C=C/C1=O`, the pIC50 with SW480 was 5.45; in the assay on SMMC-7721, 5.38; in the assay on MCF7, 5.40; with HL-60, 5.46; in the assay on A549 it was 4.82.
Take `CC(C)=CCC[C@](C)(/C=C/[C@@H](OC(=O)C=C(C)C)[C@](C)(O)/C=C/C(=O)/C=C/N1CCN(C)CC1)CC=O`: the pIC50 was 4.91 in the assay with SW480; 5.51 in the assay with SMMC-7721; 5.05 with MCF7; 5.97 in the assay on HL-60; 5.58 with A549.
As to `CC(C)=CCC[C@]1(C)/C=C/[C@@H](OC(=O)c2ccccc2)[C@](C)(O)/C=C/C(=O)/C(CO)=C\C1`, the negative-log IC50 (pIC50) with SW480 was 4.99; in the assay with SMMC-7721 it was 4.69; with MCF7, 4.57; in the assay with HL-60, 4.65; in the assay with A549 it was 4.80.
Taken in the same sequence, the figures for `CSC(=S)OC/C1=C/C[C@](C)(CCC=C(C)C)/C=C/[C@@H](OC(=O)C=C(C)C)[C@](C)(O)/C=C/C1=O` were 6.41, 6.14, 6.05, 6.74 and 6.42.
As to `CC(C)=CCC[C@]1(C)/C=C/[C@@H](OC(=O)C(C)C)[C@](C)(O)/C=C/C(=O)/C(CO)=C\C1`, the pIC50 was 5.07 with SW480; 4.98 in the assay on SMMC-7721; 4.93 with MCF7; 5.40 in the assay with HL-60; 4.97 in the assay with A549.
Regarding `CC(C)=CCC[C@]1(C)/C=C/[C@@H](OC(=O)C=C(C)C)[C@](C)(O)/C=C/[C@@H](O)/C(CO)=C\C1`, the pIC50 with SW480 is 4.71; in the assay on SMMC-7721, 4.79; with MCF7, 4.76; in the assay with HL-60, 4.80; with A549 it was 4.73.
Take `CC(C)=CCC[C@]1(C)/C=C/[C@@H](OC(=O)C=C(C)C)[C@](C)(O)/C=C/C(=O)/C(CO[Si](C)(C)C(C)(C)C)=C\C1`: the pIC50 is 5.47 in the assay on SW480; 5.40 with SMMC-7721; 5.22 with MCF7; 5.56 in the assay with HL-60; 5.38 in the assay on A549.
The corresponding values for `CC(C)=CCC[C@]1(C)/C=C/[C@@H](OC(=O)C=C(C)C)[C@](C)(O)/C=C/C(=O)/C(CN2CCOCC2)=C\C1` are 6.11, 5.94, 6.28, 5.95 and 6.18.
On to `CC(C)=CCC[C@](C)(/C=C/[C@@H](OC(=O)C=C(C)C)[C@](C)(O)/C=C/C(=O)/C=C/N(C)C)CC=O`, for which the negative logarithm of the IC50 (pIC50) in the assay with SW480 was 4.99; with SMMC-7721, 4.99; in the assay with MCF7, 4.91; in the assay on HL-60 it was 5.33; in the assay on A549, 4.95.
Turning to `COC/C1=C/C[C@](C)(CCC=C(C)C)/C=C/[C@@H](OC(=O)C=C(C)C)[C@](C)(O)/C=C/C1=O`, the negative-log IC50 (pIC50) was 5.41 with SW480; 4.96 in the assay on SMMC-7721; 5.38 in the assay on MCF7; 5.51 in the assay on HL-60; 5.40 in the assay with A549.
For the molecule `CC(C)=CCC[C@](C)(/C=C/[C@@H](OC(=O)C=C(C)C)[C@](C)(O)/C=C/C(=O)/C=C/N1CCOCC1)CC=O`, the pIC50 in the assay with SW480 was 5.01; with SMMC-7721 it was 5.13; in the assay on MCF7, 4.91; in the assay with HL-60, 5.39; with A549 it was 5.06.
On to `CC(C)=CCC[C@]1(C)/C=C/[C@@H](OC(=O)C=C(C)C)[C@](C)(O)/C=C/C(=O)/C(C(=O)N(C(C)C)C(C)C)=C\C1`, for which the pIC50 in the assay on SW480 is 4.80; in the assay on SMMC-7721, 4.77; with MCF7 it was 4.77; in the assay with HL-60, 4.90; with A549, 4.87.
Turning to `CC(C)=CCC[C@]1(C)/C=C/[C@@H](OC(=O)C=C(C)C)[C@](C)(O)/C=C/C(O)/C(C=O)=C\C1` (stereo not given in full), the negative logarithm of the IC50 (pIC50) with SW480 is 5.84; in the assay on SMMC-7721 it was 6.14; in the assay on MCF7, 5.63; in the assay on HL-60 it was 6.62; in the assay on A549, 6.24.
Regarding `CO[C@H]1/C=C/[C@@](C)(O)[C@H](OC(=O)C=C(C)C)/C=C/[C@@](C)(CCC=C(C)C)C/C=C\1CO`, the pIC50 in the assay with SW480 was 4.78; in the assay with SMMC-7721 it was 4.42; with MCF7, 4.73; with HL-60, 4.83; in the assay on A549, 4.72.

The term pIC50 denotes −log10 of the IC50, conventionally taken in molar units.
